Measurements published in patent US20180072988A1, “GENERATION OF FUNCTIONAL CELLS FROM STEM CELLS” (priority 2015, published 2018).
Entries after “also recorded” stand apart in the source; their conditions may differ.

Legend:
mixed iENs/iGNs = experiment: Spontaneous PSC recording from iGNs in mixed iENs/iGNs co-culture; type: cell-based, human; settings: 56 dpt, -70 mV; after bicuculline
Protocol: (§1) Whole cell patch clamp recordings were performed on iGNs and iENs with voltage or current clamp mode. Recording pipettes with resistances of 4-6 MΩ were filled with an internal solution containing (in mM): 120 K-gluconate, 9 KCl, 10 KOH, 3.48 MgCl2, 4 NaCl, 10 HEPES, 4 Na2ATP, 0.4 Na3GTP, 17.5 Sucrose, 0.5 EGTA with an osmolarity of 290 mOsm and pH 7.3. Neurons were bathed in the extracellular solution containing (in mM): 124 NaCl, 3 KCl, 1.3 NaH2PO4, 10 dextrose, 2 MgCl2, 2 CaCl2, 10 HEPES at pH 7.4. Bicuculline (20 μM, Tocris) and CNQX (50 μM, Tocris) were used to block inhibitory or excitatory synaptic responses, respectively. Neurons were held at −70 mV except otherwise indicated or at required currents using an Axon MultiClamp 700B amplifier (Axon Instruments). Signal was sampled at 40 kHz and filtered at 2 kHz (Digidata 1440A, Molecular Devices). Recordings with serial resistance higher than 20 MO or leaking current more than 200 pA were not analyzed. Data were analyzed offline using the ClampFit (Molecular Devices) or MiniAnalysis (Synaptosoft). […] The reversal potential for ions was −49 mV in our recording system, calculated using the simplified Nernst equation: E(Cl^−)=−59*log(extracellular[Cl^−]/intracellular[Cl^−]),(T=25° C.). Spontaneous action potentials were recorded at I=0 mode. […]

iENs = experiment: sEPSC recording from iENs; type: cell-based, human; settings: CNQX 20 μM; 21 dpt
Protocol: as §1, with “Bicuculline (20 μM, Tocris) and CNQX (50 μM, Tocris) were used to block inhibitory or excitatory synaptic responses, respectively.” left out, “(Synaptosoft). Voltage clamp was used for recording I/V curve of Na/K current using a protocol of increasing holding potential 10 mV for each step from −80 mV.” for “(Synaptosoft).”

[1] = tested on: transplanted human iGNs in acute cortical slices; experiment: Slice recording of sEPSCs from human iGNs transplanted into mouse cortex; type: cell-based; settings: CNQX 50 μM; -70 mV voltage clamp
Protocol: P1 NSG pups were anesthetized on ice for 1-2 minutes before being secured with tape onto a prechilled ice block. Human iGNs were priorly labeled with RFP as described, and trypsinized to single cells at 8 dpt. Concentrated cell suspensions (˜2.5-5×10^4 cells/μl) were front loaded into a microliter syringe (26s gauge, Hamilton Company) and injected (200 nl, 250 nl/min) bilaterally to a depth of 0.2 mm near the centre of the anterior/posterior axis and 1 mm away from the midline.
After isofluorane anesthesia, brains were quickly cut out and 300-μm coronal slices were sectioned using vibrating microtome (VF-200 Microtome, Precisionary Instruments). Slices were incubated at 30° C. in artificial cerebrospinal fluid (ACSF) containing (in mM): 125 NaCl, 2.5 KCl, 1.25 NaH2PO4, 2 CaCl2, 1 MgCl2, 26 NaHCO3, and 10 glucose, saturated with 95% 02 and 5% CO2 at 30-32° C. for recovery for at least 1 hour. During recording, slices were kept in a recording chamber with continuous perfusion of ACSF. CNQX (50 μM, Tocris) was used to block sEPSC. Patch recordings were done by using IR-DIC visualization techniques with an Olympus BX51WI upright microscope with a ×60 water-immersion lens. Patch clamp recording method was same with that of recording in cultured cell.

iGNs = experiment: Whole cell patch clamp of iGNs: GABA-evoked responses and spontaneous IPSCs; type: cell-based, human; settings: 1 mM, 100 ms
Protocol: as §1, with “Neurons were held at −70 mV except otherwise indicated or at required currents using an Axon MultiClamp 700B amplifier (Axon Instruments). Signal was sampled at 40 kHz and filtered at 2 kHz (Digidata 1440A, Molecular Devices).” left out
For chemical GABA evoked IPSC recording, tip of glass pipettes filled with freshly made GABA (1 mM, Sigma) was put approximately 100 μm away from soma along dendrites of recorded neurons. […]

iGN expressing ChETA = type: cell-based, human

Molecule: N#Cc1cc2[nH]c(=O)c(=O)[nH]c2cc1[N+](=O)[O-] [CNQX]
- sEPSCs (fast-rise, fast-decay PSCs) in iGNs of mixed culture, block (mixed iENs/iGNs): completely abolished the remaining fast-rise, fast-decay PSCs; also recorded: blocked
- sEPSCs in iENs, block (iENs): completely abolished sEPSCs
- spontaneous EPSCs (sEPSCs) in transplanted iGNs, block [1]: abolished; also recorded: blocked

Molecule: NCCCC(=O)O [GABA, gamma-aminobutyric acid]
- induction of IPSCs by exogenous application (iGNs): triggered inhibitory postsynaptic currents

Molecule: TTX
- light-evoked inward currents, block (iGN expressing ChETA): could not block these light-evoked currents
